{"source": "paper PMC4588578", "about": "“Targeting substrate-site in Jak2 kinase prevents emergence of genetic resistance” (Scientific Reports, 2015)", "key": {"[1]": {"tested_on": "BaF3 cells expressing ruxolitinib-resistant JAK2-V617F variants", "assay": "Dose-response analyses with ruxolitinib-resistant variants", "assay_type": "cell-based", "details": "with or without IL-3", "procedure": "Ba/F3 cells expressing mutant BCR-ABL proteins were plated in 96-well plates (0.5–1 × 10^4 cell per well) in RPMI medium containing 10% FCS and lacking IL-3. Kinase inhibitors were included in the media at varying concentrations. After 60 hours, the number of viable cells was assessed using WST-1 reagent (Roche Applied Science, USA), according to the manufacturer’s specifications. Assays were performed in quadruplicate."}, "[2]": {"target": "T1, JAK2 kinase domain L983F (Mus musculus, UniProt Q62120, L983F)", "T1 construct": "made in house; host or cells: Spodoptera frugiperda Sf9 (baculovirus)", "T1 sequence (Q62120 849-1124 L983F limits assumed)": "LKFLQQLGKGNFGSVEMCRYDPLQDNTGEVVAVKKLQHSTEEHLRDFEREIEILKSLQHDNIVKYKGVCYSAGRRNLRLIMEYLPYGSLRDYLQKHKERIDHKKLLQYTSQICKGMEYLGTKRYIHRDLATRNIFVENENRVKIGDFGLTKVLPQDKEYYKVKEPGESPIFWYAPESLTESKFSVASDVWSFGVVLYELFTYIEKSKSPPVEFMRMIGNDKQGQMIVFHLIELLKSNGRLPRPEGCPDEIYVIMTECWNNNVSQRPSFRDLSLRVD", "assay": "Dose response of purified kinase domain", "assay_type": "biochemical", "experimental": "(§1) Proteins were expressed in Spodoptera frugiperda, Sf9 cells. […] Each point mutants was confirmed by sequence analysis. […] All purification steps were carried out at 4 °C."}, "[3]": {"target": "T2, JAK2 kinase domain E930G (Mus musculus, UniProt Q62120, E930G)", "T2 construct": "made in house; host or cells: Spodoptera frugiperda Sf9 (baculovirus)", "T2 sequence (Q62120 849-1124 E930G limits assumed)": "as the sequence (Q62120 849-1124 L983F limits assumed) above, with E82G, F135L counted along it", "assay": "Dose response of purified kinase domain", "assay_type": "biochemical", "experimental": "as §1"}, "[4]": {"tested_on": "BaF3 cells expressing JAK2-V617F/L983F", "assay": "BaF3 cell proliferation dose-response", "assay_type": "cell-based", "details": "variant L983F in JAK2-V617F"}, "[5]": {"tested_on": "BaF3 cells expressing luciferase and JAK2-V617F", "assay": "In vivo efficacy, leukemic burden by bioluminescence", "details": "100 mg/kg twice daily, IP, two weeks"}, "[6]": {"design": "method as in PMID 21257798", "details": "at 100 mg/kg; cited from earlier work"}, "[7]": {"tested_on": "BaF3 cells expressing luciferase and JAK2-V617F/L983F", "assay": "In vivo efficacy, leukemic burden by bioluminescence", "details": "100 mg/kg twice daily, IP, two weeks"}, "[8]": {"tested_on": "TEL-JAK3-expressing BaF3 cells", "assay": "Soft-agar colony assay", "assay_type": "cell-based"}, "[9]": {"tested_on": "BaF3 cells expressing JAK2-V617F/Y931C/W1038C", "assay": "BaF3 cell proliferation dose-response", "assay_type": "cell-based", "details": "Mus musculus, BaF3, read-out: IC50, cell proliferation"}, "[10]": {"tested_on": "BaF3 cells expressing JAK2-V617F/Y931C/F1061W", "assay": "BaF3 cell proliferation dose-response", "assay_type": "cell-based", "details": "Mus musculus, BaF3, read-out: IC50, cell proliferation"}, "[11]": {"tested_on": "BaF3 cells expressing JAK2-V617F/Y931C/S1025C", "assay": "BaF3 cell proliferation dose-response", "assay_type": "cell-based", "details": "Mus musculus, BaF3, read-out: IC50, cell proliferation"}, "[12]": {"tested_on": "BaF3 cells expressing JAK2-V617F/Y931C/I1018F", "assay": "BaF3 cell proliferation dose-response", "assay_type": "cell-based", "details": "Mus musculus, BaF3, read-out: IC50, cell proliferation"}, "[13]": {"tested_on": "BaF3 cells expressing JAK2-V617F/Y931C/Y1045W", "assay": "BaF3 cell proliferation dose-response", "assay_type": "cell-based", "details": "Mus musculus, BaF3, read-out: IC50, cell proliferation"}, "[14]": {"tested_on": "BaF3 cells expressing TEL-JAK2", "assay": "BaF3 cell proliferation dose-response", "assay_type": "cell-based", "details": "receptor-free fully activated JAK2 (TEL-JAK2); data not shown", "experimental": "(§2) Assays were performed in quadruplicate."}, "[15]": {"tested_on": "BaF3 cells expressing JAK2-V617F/Y931C/F1019L", "assay": "BaF3 cell proliferation dose-response", "assay_type": "cell-based", "details": "Mus musculus, BaF3, read-out: IC50, cell proliferation"}, "[16]": {"tested_on": "BaF3 cells expressing JAK2-V617F", "assay": "cells", "details": "Mus musculus, BaF3, read-out: IC50, cell proliferation, BaF3 JAK2-V617F"}, "[17]": {"tested_on": "BaF3 cells expressing JAK2-V617F/Y931C/S1039F", "assay": "BaF3 cell proliferation dose-response", "assay_type": "cell-based", "details": "Mus musculus, BaF3, read-out: IC50, cell proliferation"}, "[18]": {"tested_on": "TEL-JAK1-expressing BaF3 cells", "assay": "Soft-agar colony assay", "assay_type": "cell-based"}, "[19]": {"tested_on": "BaF3 cells transduced with randomly mutagenized JAK2-V617F", "assay": "In vitro drug-resistance screen, random mutagenesis", "assay_type": "cell-based", "details": "ruxolitinib at 1, 2 and 5 μM; fedratinib at 2-fold above IC50", "experimental": "To generate random mutation library of Jak2-V617F, E. coli XL1-red cells were transformed with one μg of JAK2-V617F plasmid DNA. More specifically, 50–100 ng of DNA (more than 100 ng of DNA decreases transformation efficiency) was mixed with 100 μl of competent cells in a pre-chilled polypropylene tube and incubated on ice for 30 min, gently swirling every 5 min. For a good library, four to six tubes of competent cells are used. Cells from each tube were plated on four 10 cm LB-agar plates containing 100-μg/ml ampicillin. Plates were incubated at 37 °C for 18–24 hours. When colonies became visible (18–24 hrs), cells were pooled from each plates and plasmid DNA was isolated using the Qiagen’s midiprep kit. At this stage, the heterogeneity of mutations in the library can be roughly assessed by restriction digestion with a frequent cutter such as Sau3A1 or Taq1 or sequencing.\nTo select resistant clones of JAK2-V617F, high titer retroviruses were produced as describe. One hundred million native BAF3 cells were transduced with 100 ml of virus supernatants having a viral titer of 0.5–1 × 10^6. […] We observed that the overexpression of EPOR or MPL tend to loose dependence on Jak2 resulting to emergence of false-positives[58]. More specifically, 100 × 10^6 cells were mixed with 100 ml of virus supernatant and 100 ml of RPMI, containing 10% serum and 24 μg/ml of polyberene. […]"}, "[20]": {"tested_on": "BaF3 cells expressing JAK2-V617F/Y931C/L1026F", "assay": "BaF3 cell proliferation dose-response", "assay_type": "cell-based", "details": "Mus musculus, BaF3, read-out: IC50, cell proliferation"}, "[21]": {"tested_on": "phospho-STAT5 in JAK1-transduced cells", "assay": "Phospho-STAT5 inhibition in transduced BaF3 cells", "assay_type": "cell-based", "details": "Mus musculus", "experimental": "as §2"}, "[22]": {"tested_on": "BaF3 cells expressing JAK2-V617F", "details": "read-out: IC50, cell proliferation"}, "[23]": {"tested_on": "phospho-STAT5 in JAK3-transduced cells", "assay": "Phospho-STAT5 inhibition in transduced BaF3 cells", "assay_type": "cell-based", "details": "Mus musculus"}, "[24]": {"tested_on": "BaF3 cells expressing JAK2-V617F", "assay": "Soft-agar colony assay", "assay_type": "cell-based"}, "[25]": {"tested_on": "phospho-STAT5 in BaF3 cells expressing JAK2-V617 variant L983F", "assay": "Immunoblot analysis of phospho-STAT5", "assay_type": "cell-based"}, "[26]": {"tested_on": "BaF3 cells expressing JAK2-V617F/Y931C/V1075F", "assay": "BaF3 cell proliferation dose-response", "assay_type": "cell-based", "details": "Mus musculus, BaF3, read-out: IC50, cell proliferation"}, "[27]": {"tested_on": "BaF3 cells expressing JAK2-V617F/Y931C/Y1045*", "assay": "BaF3 cell proliferation dose-response", "assay_type": "cell-based", "details": "Mus musculus, BaF3, read-out: IC50, cell proliferation"}, "[28]": {"tested_on": "BaF3 cells expressing JAK2-V617F/Y931C/W1020C", "assay": "BaF3 cell proliferation dose-response", "assay_type": "cell-based", "details": "Mus musculus, BaF3, read-out: IC50, cell proliferation"}}, "note": "Read-outs that look alike come from different tables or passages of the source.", "data": [{"molecule": "N#CCNC(=O)c1ccc(-c2ccnc(Nc3ccc(N4CCOCC4)cc3)n2)cc1", "note": "[CYT-387]", "values": [{"measurement": "resistance of ruxolitinib-resistant variants", "setting": "[1]", "result": "cross-resistance"}, {"measurement": "resistance or sensitivity of purified kinase domain", "setting": "[2]", "result": "sensitive"}, {"measurement": "resistance or sensitivity of purified kinase domain", "setting": "[3]", "result": "sensitive"}, {"measurement": "resistance or sensitivity of variant L983F", "setting": "[4]", "result": "full sensitivity"}]}, {"molecule": "C[C@]12O[C@H](C[C@]1(O)CO)n1c3ccccc3c3c4c(c5c6ccccc6n2c5c31)CNC4=O", "note": "[lestaurtinib]", "values": [{"measurement": "resistance of ruxolitinib-resistant variants", "setting": "[1]", "result": "cross-resistance"}, {"measurement": "resistance or sensitivity of variant L983F", "setting": "[4]", "result": "resistance"}]}, {"molecule": "Cc1cc(Nc2nc(N[C@@H](C)c3ncc(F)cn3)ncc2Cl)n[nH]1", "note": "[AZD1480]", "values": [{"measurement": "resistance of ruxolitinib-resistant variants", "setting": "[1]", "result": "cross-resistance"}, {"measurement": "resistance or sensitivity of variant L983F", "setting": "[4]", "result": "resistance"}]}, {"molecule": "N#CC[C@H](C1CCCC1)n1cc(-c2ncnc3[nH]ccc23)cn1", "note": "[ruxolitinib]", "values": [{"measurement": "effect on transplanted cells (leukemic burden)", "setting": "[5]", "result": "eradicated"}, {"measurement": "Cmax", "setting": "[6]", "result": 4.4, "unit": "µM"}, {"measurement": "effect on transplanted cells (leukemic burden)", "setting": "[7]", "result": "ineffective"}]}, {"molecule": "Cc1cnc(Nc2ccc(OCCN3CCCC3)cc2)nc1Nc1cccc(S(=O)(=O)NC(C)(C)C)c1", "note": "[fedratinib]", "values": [{"measurement": "concentration up to which colony growth is supported", "setting": "[8]", "result": 4, "unit": "µM"}, {"measurement": "IC50", "setting": "[9]", "result": 1580, "unit": "nM"}, {"measurement": "IC50", "setting": "[10]", "result": 1980, "unit": "nM"}, {"measurement": "resistance of ruxolitinib-resistant variants", "setting": "[1]", "result": "complete lack of resistance"}, {"measurement": "IC50", "setting": "[11]", "result": 2310, "unit": "nM"}, {"measurement": "IC50", "setting": "[12]", "result": 1490, "unit": "nM"}, {"measurement": "IC50", "setting": "[13]", "result": 2110, "unit": "nM"}, {"measurement": "increase in hypersensitivity of TEL-JAK2 in comparison to JAK2-V617F", "setting": "[14]", "result": "~ 3 fold"}, {"measurement": "IC50", "setting": "[15]", "result": 1030, "unit": "nM"}, {"measurement": "IC50", "setting": "[16]", "result": 1070, "unit": "nM"}, {"measurement": "IC50", "setting": "[17]", "result": 1640, "unit": "nM"}, {"measurement": "concentration up to which colony growth is supported", "setting": "[18]", "result": 6, "unit": "µM"}, {"measurement": "emergence of resistant clones", "setting": "[19]", "result": "did not result in any resistant clones"}, {"measurement": "IC50", "setting": "[20]", "result": 1690, "unit": "nM"}, {"measurement": "IC50", "setting": "[21]", "result": "> 10000", "unit": "nM"}, {"measurement": "IC50", "setting": "[22]", "result": "~900", "unit": "nM"}, {"measurement": "IC50", "setting": "[23]", "result": "> 5000", "unit": "nM"}, {"measurement": "concentration above which cells failed to grow", "setting": "[24]", "result": 3, "unit": "µM"}, {"measurement": "phospho-STAT5 inhibition (immunoblot)", "setting": "[25]", "result": "dose-dependent inhibition"}, {"measurement": "IC50", "setting": "[26]", "result": 2250, "unit": "nM"}, {"measurement": "IC50", "setting": "[27]", "result": 1680, "unit": "nM"}, {"measurement": "IC50", "setting": "[28]", "result": 1010, "unit": "nM"}]}]}
